“Also recorded” adds a separate entry of the source.
Experiments:
PqsR [1] = target: T1, PqsR (Pseudomonas aeruginosa, UniProt Q9I4X0); settings: read-out: EC50 of PQS for pqsA::lux expression; PAO1-L ΔpqsA pqsA::lux, without lactam; cited from earlier work
T1 construct: By using the AQ-non producing P. aeruginosa strain PAO1-L ΔpqsA, pqsA::lux; endogenous in cells; host or cells: P. aeruginosa PAO1-L ΔpqsA, pqsA::lux

PqsR [2] = target: T1, PqsR; test: PQS-dependent expression of pqsA::lux in AQ-non producing PAO1-L ΔpqsA (PqsR antagonism); assay type: cell-based
Protocol: By using the AQ-non producing P. aeruginosa strain PAO1-L ΔpqsA, pqsA::lux, the EC50 value for the native PqsR agonist, PQS was calculated as ˜2 μM (Ilangovan et al. 2013).
The experiment shown in FIG. 8 was then repeated using 4-(4-chlorophenyl)-5-methylene-pyrrol-2-one (Ref. 488) concentrations of 0, 50, 100 and 200 μM.
A partial agonist is a molecule that can bind to and activate a receptor resulting in a non-complete response compared with a full agonist. […] This contrasts with its activity as an antagonist in the presence of 10 or 40 μM PQS.

PqsABCD = test: HHQ production by PAO1-N ΔpqsAHR pBBR-pqsABCD, TLC with AQ biosensor overlay; assay type: cell-based, Pseudomonas aeruginosa; settings: 488 200 μM, overnight in LB, FIG. 13
Excerpt: To determine whether 4-(4-chlorophenyl)-5-methylene-pyrrol-2-one (Ref. 488) is capable of inhibiting the enzymes (PqsABCD) involved in AQ biosynthesis, the P. aeruginosa PAO1-N ΔpqsAHR was exploited. This mutant cannot produce AQs because the genes coding for the key biosynthetic enzymes (PqsA and PqsH) and regulation (PqsR) have been deleted. To restore AQ production in a PqsR-independent manner in PAO1-N ΔpqsA, the pqsABCD genes were introduced on a plasmid (pBBR pqsABCD; Niewerth et al. 2011). P. aeruginosa PAO1-N ΔpqsAHR and P. aeruginosa PAO1-N ΔpqsAHR pBBR pqsABCD were both incubated overnight in LB with and without 4-(4-chlorophenyl)-5-methylene-pyrrol-2-one (Ref. 488) (200 μM), resuspended to an OD600 1.0. The cultures were extracted with acidified ethyl acetate, the organic phase removed, dried and resuspended in methanol subjected to thin layer chromatography (TLC).
After chromatography using a dichloromethane-methanol mobile phase, the TLC plates were overlaid with a thin agar layer containing the AQ biosensor strain PAO1-L ΔpqsA CTX::pqsA′-luxCDABE (Fletcher et al. 2007) incubated and examined for reporter output (FIG. 13). […] The biosensor strain produces light (FIG. 13 panel C) and pyocyanin (FIG. 13 panel B) in response to AQs that bind to PqsR and activate the pqsA promoter.

[3] = tested on: P. aeruginosa PAO1 pqsA::lux; test: pqsA::lux promoter fusion expression in P. aeruginosa PAO1-L biosensor (AQ-dependent quorum sensing); assay type: cell-based, Pseudomonas aeruginosa; settings: for extent of inhibition of light output / pqsA expression at high concentrations: PAO1-L pqsA::lux; for IC50: Pseudomonas aeruginosa, PAO1, read-out: IC50 for inhibition of pqsA::lux expression
Protocol: The expression of rhl and las AHL- and the pqsA AQ-synthase genes was evaluated using lux-based lasl (FIG. 1), rhll (FIG. 2) and pqsA (FIG. 3) chromosomally integrated promoter fusions. Luminescence was quantified as a function of bacterial growth. The applicant further determined that none of the lactams is growth inhibitory at 100 μM using a large number of strains (figure not shown).
To determine the relative inhibitory activities (IC50s) of 4-(4-chlorophenyl)-5-methylene-pyrrol-2-one (Ref. 488) and 5-methylene-4-(p-tolyl)pyrrol-2-one (Ref. 491), dose response curves were constructed using the same biosensor strain (P. aeruginosa PAO1 pqsA::lux; Fletcher et al, 2007; Ilangovan et al 2013). This strain produces light in response to the endogenous production of AQs such as PQS and HHQ.

[4] = tested on: P. aeruginosa strain PAO1-L; test: Pyocyanin production by PAO1-L, visually assessed; assay type: cell-based, Pseudomonas aeruginosa; settings: 100 μM (vial 2), 8 h at 37° C., FIG. 5
Excerpt: Pyocyanin is a blue redox-active secondary metabolite and a putative signalling molecule in P. aeruginosa (Jayaseelan et al, 2014). The pyocyanin biosynthetic (phz) genes are regulated by QS and in part via the transcriptional regulator PqsR acting through PqsE (Rampioni et al 2011).
Although qualitative, this observation offers further confirmation of the inhibitory effects of lactam 4-(4-chlorophenyl)-5-methylene-pyrrol-2-one (Ref. 488) on AQ-dependent QS.

[5] = tested on: PAO1-N ΔpqsAHR pqsA'::lux; test: PqsR-independent expression of pqsA'::lux in PAO1-N ΔpqsAHR; assay type: cell-based, Pseudomonas aeruginosa; settings: presence or absence of 40 μM PQS, FIG. 11
Excerpt: PQS is capable of weakly activating pqsA in the absence of PqsR via a mechanism that is not fully understood but appears to depend on the iron chelating properties of PQS. The aim of this experiment was to clarify whether lactam 4-(4-chlorophenyl)-5-methylene-pyrrol-2-one (Ref. 488) is also inhibitory for pqsA expression via the PqsR independent pathway. As previously described, the pqsA′::lux biosensor based on the triple mutant PAO1-N ΔpqsAHR cannot produce AQs and lacks pqsR but still responds to exogenous PQS. This response is however much weaker that the PqsR-dependent response.

T1 sequence (Q9I4X0 whole entry): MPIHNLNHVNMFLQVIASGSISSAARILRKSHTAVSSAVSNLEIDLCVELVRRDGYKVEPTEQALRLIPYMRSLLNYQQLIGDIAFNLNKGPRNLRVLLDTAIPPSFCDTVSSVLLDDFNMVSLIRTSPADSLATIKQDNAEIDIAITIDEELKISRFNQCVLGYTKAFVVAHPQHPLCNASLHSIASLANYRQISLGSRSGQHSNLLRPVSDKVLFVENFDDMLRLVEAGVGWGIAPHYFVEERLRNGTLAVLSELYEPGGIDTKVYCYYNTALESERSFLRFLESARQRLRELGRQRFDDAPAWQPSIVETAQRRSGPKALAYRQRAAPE

SMILES	EC50 (PqsR [1]) [µM]	mode of antagonism of PQS-dependent pqsA::lux expression (PqsR [2]; 488 at 0, 50, 100 and 200 μM, FIG. 9)	restoration of light output by PQS in the presence of 488 (PqsR [2]; 488 at 50, 100, 200 μM, PAO1-L ΔpqsA, FIG. 9)	partial agonist activity (activation of pqsA expression) (PqsR [2]; PAO1-L ΔpqsA pqsA'::lux, concentrations up to 800 μM, FIG. 10)	fold increase of PQS EC50 caused by the lactam (PqsR [2]; fixed concentration of 488 (215 μM), range of PQS concentrations) [fold]	effect on HHQ biosynthesis (PqsABCD)	extent of inhibition of light output / pqsA expression at high concentrations [3]	IC50 [3] [µM]	relative inhibition of PqsR-dependent pqsA::lux promoter fusion in screening ([3]; lactams at 100 μM, FIG. 3)	pyocyanin production in culture supernatant [4]	effect on PqsR-independent expression of pqsA [5]
CCCCCCCc1[nH]c2ccccc2c(=O)c1O [PQS, 2-heptyl-3-hydroxy-4-(1H)-quinolone]	~2	–	–	–	–	–	–	–	–	–	–
C=C1NC(=O)C=C1c1ccc(Cl)cc1 [Ref. 488, 4-(4-chlorophenyl)-5-methylene-pyrrol-2-one]	–	competitive antagonist	fully restoring light output in the presence of 50 μM but not 100 μM or 200 μM	no partial agonist activity	~15	did not inhibit HHQ biosynthesis	completely inhibited light output; also recorded: fully knock out the PQS	22	most potent inhibitor	absence of green pigmentation	small inhibitory effect
C=C1NC(=O)C=C1c1ccc(C)cc1 [Ref. 491, 5-methylene-4-(p-tolyl)pyrrol-2-one]	–	–	–	–	–	–	did not inhibit pqsA expression as strongly; also recorded: did not give complete knock out at higher concentration	44	–	–	–

— patent publication US11160787B2, “4-(4-chlorophenyl)-5-methylene-pyrrol-2-one and 5-methylene-4-(p-tolyl)pyrrol-2-one for use in the treatment of gram negative bacterial infections” (priority 2016, dated 2021)
